In patent publication US5523408A, “2-carbocyclic and 2-heterocyclic quinoline-4-carboxylic acids and salts thereof useful as immunosuppressive agents” (The Dupont Merck Pharmaceutical Company, priority 1994, dated 1996):
Where a name gives a salt, the structure may show the parent alone. Read-outs that look alike come from different tables or passages of the source.

Assays:
[1] = test system: human mixed lymphocyte reaction; assay: Human Mixed Lymphocyte Reaction Test (MLR); assay type: cell-based; conditions: 144 h
Text: The human mixed lymphocyte reaction is an in vitro immune response. Inhibition of the human mixed lymphocyte reaction immune response is a standard assay used in the field of immunology, which is considered to be indicative of in vivo immunosuppressive activity. […] The human mixed lymphocyte is also used as a model system for immune reactions involving T-cell-mediated immune responses. Such T-cell-mediated immune responses have been linked to the disease pathology associated with autoimmune diseases, chronic inflammatory diseases, graft versus host disease and organ transplantation rejection.
Blood was obtained by venipuncture from two non-related human donors. Peripheral blood mononuclear cells (PBMC) were isolated from these samples by using the Leuco Prep procedure (Becton-Dickinson). […] Cells from donor A (2×10^5) were incubated with cells from donor B (2×10^5) with or without compound in 96 well round bottom microtiter plates at 37° C., 5% CO2 for 6 days. Eighteen hours prior to harvesting cells from the plates, all wells were pulsed with 1 uCi of tritiated-thymidine. Cells from the plates were washed on day 6 and tritiated-thymidine incorporation was determined using a scintillation counter.

[2] = test system: contact sensitivity response to 2,4-dinitrofluorobenzene (DNFB); assay: Assay of Contact Sensitivity Response to DNFB in Mice; assay type: in vivo, Balb/c female mice; conditions: oral, 0.25% Methocel; ear swelling 24 hours after DNFB challenge
Text: Contact sensitivity to 2,4-dinitrofluorobenzene (DNFB) has been extensively studied and characterized in the mouse to determine the regulatory mechanisms involved in cell mediated immune responses (Claman et al., Immunol. Rev. 50:105, 1980; Young and Young, "Cutaneous Models of Inflammation for the Evaluation of Topical and Systemic Pharmacological Agents" in Pharmacological Methods in the Control of Inflammation (Chang and Lewis, Eds.), Alan R. Liss, Inc., New York, pp. 215-231, 1989). This is an antigen-specific T-cell mediated inflammatory response that represents delayed-type hypersensitivity reactions seen in both humans and other mammals. This contact sensitivity animal model is used routinely in many laboratories for pharmacological screening of antiinflammatory agents.
The contact sensitivity model used for this study is an extensively used model system for delayed-type hypersensitivity reactions involving cell-mediated immune responses (T-cell mediated responses), which have been linked to the disease pathology associated with organ transplantation rejection, graft versus host disease, multiple sclerosis, myasthenia gravis, systemic lupus erythematosus, rheumatoid arthritis, and other chronic inflammatory diseases and autoimmune diseases for which the T-cell is pivotal to mounting an immune or autoimmune response.
Balb/c female mice (approximately 20 g, Charles River) were sensitized on the shaved abdomen with 25 uL of 0.5% 2,4-dinitrofluorobenzene (DNFB) (Eastman Kodak Co.) in a vehicle of 4:1 acetone: olive oil on days 0 and 1. Mice were ear challenged with 20 uL of 0.2% DNFB in a vehicle of 4:1 acetone: olive oil on day 5. An identical segment of the ear was measured immediately before challenge and 24 hours later with an engineer's micrometer. Ear swelling was expressed as the difference in ear thickness before and after challenge in units of 10-4 inches±SEM. Percent suppression was calculated as: [formula] Compounds (prepared in 0.25% Methocel®) were administered orally. Control animals received only vehicle (0.25% Methocel®). Negative controls were not sensitized on days 0 and 1 but were ear challenged on day 5. Ten mice are typically used per group.
Contact sensitivity results for representative compounds of the present invention are shown in Table B. In this table, + designates greater than 30% suppression of control ear swelling.

[3] = human MLR, tritiated-thymidine incorporation, 6 days, read-out: IC50

| Structure (SMILES) | IC50 [1, 3] [nM] | Contact Sensitivity Activity (suppression of control ear swelling) [2] | IC50 ([1]; Homo sapiens) [nM] |
| --- | --- | --- | --- |
| Cc1c(N2CCc3c(-c4ccccc4)cccc32)nc2ccc(F)cc2c1C(=O)O [Ex. 1, 6-fluoro-3-methyl-2-(4-phenyl-1-indolinyl)quinoline-4-carboxylic acid] | < 50 | + (greater than 30% suppression of control ear swelling) | – |
| Cc1c(N2CCc3c(-c4ccccc4)cccc32)nc2ccc(F)cc2c1C(=O)[O-].[Na+] [Ex. 2, 6-fluoro-3-methyl-2-(4-phenyl-1-indolinyl)quinoline-4-carboxylic acid, sodium salt] | – | + (greater than 30% suppression of control ear swelling) | – |
| Cc1c(N2CCc3c(-c4ccccc4)cccc32)nc2ccccc2c1C(=O)O [Ex. 4] | 50 to 10000 | + (greater than 30% suppression of control ear swelling) | – |
| O=C(O)c1cc(N2CCc3c(-c4ccccc4)cccc32)nc2ccc(F)cc12 [Ex. 5, 6-fluoro-2-(4-phenyl-1-indolinyl)-quinoline-4-carboxylic acid, sodium salt] | – | – | < 50 |
| O=C([O-])c1cc(N2CCc3c(-c4cccc(C(F)(F)F)c4)cccc32)nc2ccc(F)cc12.[Na+] [Ex. 6, 6-fluoro-2-[4-(3-trifluoromethylphenyl)-1-indolinyl]-quinoline-4-carboxylicacid, sodium salt] | – | + (greater than 30% suppression of control ear swelling) | < 50 |
| O=C(O)c1cc(N2CCc3c(-c4ccccc4F)cccc32)nc2ccc(F)cc12 [Ex. 7] | < 50 | + (greater than 30% suppression of control ear swelling) | – |
| Cc1ccccc1-c1cccc2c1CCN2c1cc(C(=O)O)c2cc(F)ccc2n1 [Ex. 8, 6-fluoro-2-[4-(2-methylphenyl)-1-indolinyl]-quinoline-4-carboxylic acid, sodium salt] | – | – | < 50 |
| COc1ccccc1-c1cccc2c1CCN2c1nc2ccc(F)cc2c(C(=O)O)c1C [Ex. 9, 6-fluoro-[4-(2-methoxyphenyl)-1-indolinyl]-3-methylquinoline-4-carboxylic acid, sodium salt] | < 50 | – | – |
| Cc1c(N2CCc3c(-c4ccccc4F)cccc32)nc2ccc(F)cc2c1C(=O)[O-].[Na+] [Ex. 10, 6-fluoro-2-[4-(2-fluorophenyl)-1-indolinyl]-3-methylquinoline-4-carboxylic acid, sodium salt] | – | + (greater than 30% suppression of control ear swelling) | < 50 |
| Cc1ccccc1-c1cccc2c1CCN2c1nc2ccc(F)cc2c(C(=O)O)c1C [Ex. 11, 6-fluoro-3-methyl-2-[4-(2-methylphenyl)-1-indolinyl]-quinoline-4-carboxylicacid, sodium salt] | – | – | < 50 |
| Cc1c(N2CCc3c(-c4cccc(C(F)(F)F)c4)cccc32)nc2ccc(F)cc2c1C(=O)[O-].[Na+] [Ex. 12, 6-fluoro-3-methyl-2-[4-(3-trifluoromethylphenyl)-1-indolinyl]-quinoline-4-carboxylic acid, sodium salt] | – | + (greater than 30% suppression of control ear swelling) | < 50 |
| COc1cccc(-c2cccc3c2CCN3c2nc3ccc(F)cc3c(C(=O)O)c2C)c1 [Ex. 13, 6-fluoro-[4-(3-methoxyphenyl)-1-indolinyl]-3-methylquinoline-4-carboxylic acid, sodium salt] | < 50 | – | – |
| Cc1c(-n2ccc3c(-c4ccccc4)cccc32)nc2ccc(F)cc2c1C(=O)O [Ex. 46] | 50 to 10000 | + (greater than 30% suppression of control ear swelling) | – |
| Cc1c(-n2ccc3c(-c4ccccc4)cccc32)nc2ccc(F)cc2c1C(=O)[O-].[Na+] [Ex. 47, 6-fluoro-3-methyl-2-(4-phenyl-1-indolyl)-quinoline-4-carboxylic acid, sodium salt] | – | + (greater than 30% suppression of control ear swelling) | – |
| Cc1c(-n2cnc3c(-c4ccccc4)cc(F)cc32)nc2ccc(F)cc2c1C(=O)O [Ex. 68, 6-fluoro-3-methyl-2-(6-fluoro-4-phenyl-1-benzimidazolyl)quinoline-4-carboxylic acid] | 50 to 10000 | – | – |
| Cc1c(-c2cn(C)c3c(-c4ccccc4)cccc23)nc2ccc(C(F)(F)F)cc2c1C(=O)O [Ex. 73, 3-methyl-2-(7-phenyl-1-methyl-3-indolyl)-6-trifluoromethylquinoline-4-carboxylic acid, sodium salt] | – | – | < 50 |
| Cc1c(-c2cn(C)c3c(-c4ccccc4)cccc23)nc2ccc(F)cc2c1C(=O)[O-].[Na+] [Ex. 75, 6-fluoro-3-methyl-2-(7-phenyl-1-methyl-3-indolyl)-quinoline-4-carboxylic acid, sodium salt] | – | + (greater than 30% suppression of control ear swelling) | 50 to 10000 |
| Cc1c(-c2cccc3c(-c4ccccc4)cccc23)nc2ccc(F)cc2c1C(=O)O [Ex. 128, 6-fluoro-3-methyl-2-(5-phenyl-1-naphthyl) quinoline-4-carboxylic acid, sodium salt] | 50 to 10000 | – | – |
| CN(Cc1cnc2nc(N)nc(N)c2n1)c1ccc(C(=O)N[C@@H](CCC(=O)O)C(=O)O)cc1 [methotrexate, reference compound] | – | + (greater than 30% suppression of control ear swelling) | < 50 |
